Patent publication US20240076699A1, “BIOSYNTHESIS OF SUBSTITUTED COMPOUNDS AND CANNABINOIDS” (Invizyne Technologies, Inc., priority 2022, published 2024)

Columns and labels:
[1] = target: T1, methionine adenosyltransferase (MAT) from Methanocaldococcusjannaschii (mj) (Methanocaldococcus jannaschii, UniProt Q58605); settings: 5 mM met or d3-met, 10 μM MAT, 1 h room temperature
T1 sequence (Q58605 1-406): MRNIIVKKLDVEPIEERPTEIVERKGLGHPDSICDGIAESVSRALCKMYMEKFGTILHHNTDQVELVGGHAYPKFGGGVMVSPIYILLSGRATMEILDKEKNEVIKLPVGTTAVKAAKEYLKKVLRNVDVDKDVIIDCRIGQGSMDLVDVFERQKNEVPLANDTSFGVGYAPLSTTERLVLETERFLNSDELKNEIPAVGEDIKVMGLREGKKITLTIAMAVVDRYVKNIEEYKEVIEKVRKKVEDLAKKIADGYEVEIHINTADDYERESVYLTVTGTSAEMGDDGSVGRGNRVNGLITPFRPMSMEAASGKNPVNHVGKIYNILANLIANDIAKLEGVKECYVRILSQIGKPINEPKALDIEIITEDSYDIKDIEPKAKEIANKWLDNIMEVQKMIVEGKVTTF

[2] = target: T2, methionine adenosyltransferase (MAT) from Thermococcus kodakarensis (tk) (Thermococcus kodakarensis, UniProt Q5JF22); settings: 5 mM met or d3-met, 10 μM MAT, 1 h room temperature
T2 sequence (Q5JF22 1-405): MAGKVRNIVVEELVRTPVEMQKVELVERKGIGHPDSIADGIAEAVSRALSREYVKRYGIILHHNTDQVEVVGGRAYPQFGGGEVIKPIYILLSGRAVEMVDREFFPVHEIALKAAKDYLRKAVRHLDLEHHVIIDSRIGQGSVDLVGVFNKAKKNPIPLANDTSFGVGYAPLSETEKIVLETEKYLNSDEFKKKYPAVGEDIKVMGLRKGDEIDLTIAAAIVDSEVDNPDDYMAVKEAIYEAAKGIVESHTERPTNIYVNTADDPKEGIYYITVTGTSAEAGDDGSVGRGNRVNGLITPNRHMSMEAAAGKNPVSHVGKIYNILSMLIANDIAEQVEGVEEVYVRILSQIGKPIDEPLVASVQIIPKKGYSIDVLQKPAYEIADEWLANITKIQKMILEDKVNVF

[3] = target: Bovine serum albumin (BSA) (Bos taurus, UniProt P02769); test: BSA binding seen during extraction; settings: reaction mixture extraction
Excerpt: In one embodiment, upon formation of the THCA compound of the present invention, the compound is purified to isolate the produced THCA. The extraction of CBGA and THCA into ethylacetate formed an emulsion which could only be partially broken with the addition of hexane. Bovine serum albumin (BSA) binds both CBGA and THCA tightly and thus not all of the product is recoverable in the organic phase of the purification process. However, acid precipitation of the BSA with the addition of 1% HCl allows for the denaturation of BSA and subsequent unbinding of the CBGA and THCA to allow extraction and purification. In one embodiment, the HCl is added directly to the reaction mixture, which is then incubated for about 10 minutes to assure full denaturation of BSA. The mixture is then centrifuged for about 30 minutes at 4000 g. After centrifuging the mixture, the CBGA and THCA coprecipitate into pelleted form. The pellet is then washed with water until the water reaches a neutral pH. The pellet is then resuspended in methanol using vigorous vortexing. The methanol mixture was rotavapped over a water bath at 40° C., and the resulting oil was resuspended in ethanol. The THCA then precipitates as a brown oil. The reaction mixture is then filtered and washed with water and then resuspended in hexane. The hexane was then rotavapped to remove mass added to the product by excess […]. […]

[4] = nLC-MS/MS comparison of CBGA and dCBGA after one hour (degradation); assay type: in vitro ADME; settings: matrix not stated
Experimental: (§1) Additional samples were subjected to nano-scale liquid chromatographic tandem mass spectrometry (nLC-MS/MS). Samples were prepared using 2 μL of standard and 198 μL of 50:50 water:acetonitrile in 0.1% formic acid. A 1 μL sample was injected.
Table 10 compares nLC-MS/MS data for the CBGA samples and dCBGA samples after one hour.
FIG. 26 illustrates a graph comparing CBGA and dCBGA. Sample 1, Sample 2, and Sample 3 are shown left to right for both CBGA and dCBGA.

[5] = nLC-MS/MS of CBGA and dCBGA samples after one hour; assay type: in vitro ADME
Experimental: as §1

[6] = Solubility in nonane overlay versus water; assay type: physicochemical
[7] = results in an inactive metabolite; cited from earlier work

Chain of Bovine serum albumin (BSA) (P02769 25-607): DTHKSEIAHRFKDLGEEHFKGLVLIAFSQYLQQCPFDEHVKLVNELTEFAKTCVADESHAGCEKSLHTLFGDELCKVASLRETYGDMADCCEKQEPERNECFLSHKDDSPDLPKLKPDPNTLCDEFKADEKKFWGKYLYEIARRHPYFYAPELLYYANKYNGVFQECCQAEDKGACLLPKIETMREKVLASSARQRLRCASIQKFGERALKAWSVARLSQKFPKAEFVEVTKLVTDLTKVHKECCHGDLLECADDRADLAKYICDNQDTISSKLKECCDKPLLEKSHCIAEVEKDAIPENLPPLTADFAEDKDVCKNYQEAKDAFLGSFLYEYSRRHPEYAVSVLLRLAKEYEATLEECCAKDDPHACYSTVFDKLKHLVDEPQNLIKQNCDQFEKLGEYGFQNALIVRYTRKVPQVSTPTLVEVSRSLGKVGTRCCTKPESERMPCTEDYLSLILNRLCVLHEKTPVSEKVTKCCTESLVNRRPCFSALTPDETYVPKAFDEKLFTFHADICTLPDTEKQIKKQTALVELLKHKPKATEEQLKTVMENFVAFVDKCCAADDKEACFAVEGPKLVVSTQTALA

[2H]C([2H])([2H])SCC[C@H](N)C(=O)O [d3-met, d3-L-methionine]
MAT activity on substrate (Pi released per hour) [1]: equally active | MAT activity on substrate (Pi released per hour) [2]: equally active

CCCCCc1cc2c(c(O)c1C(=O)O)[C@@H]1C=C(C)CC[C@H]1C(C)(C)O2 [THCA, tetrahydrocannabinolic acid]
binding by BSA [3]: tightly

CCCCCc1cc(O)c(C/C=C(\C)CCC=C(C)C)c(O)c1C(=O)O [CBGA, cannabigerolic acid]
degradation after one hour compared with dCBGA [4]: significantly more degraded after one hour than dCBGA

CCCCCc1cc(O)c(C/C=C(\C)CCC=C(C)C)c(O)c1C(=O)O [dCBGA, d11-cannabigerolic acid]
degradation after one hour, CBGA compared with dCBGA [5]: CBGA is significantly more degraded after one hour than dCBGA

CCCCCc1cc(O)c(C/C=C(\C)CCC=C(C)C)c(O)c1C(=O)O [CBGA, cannabigerolic acid, reference compound]
binding by BSA [3]: tightly | solubility in water compared with nonane [6]: more soluble in water than nonane | degradation after one hour, CBGA compared with dCBGA [5]: CBGA is significantly more degraded after one hour than dCBGA

CCCc1cc(O)c(C/C=C(\C)CCC=C(C)C)c(O)c1C(=O)O [CBGVA, cannabierovarinic acid]
solubility in nonane [6]: limited solubility

CSCC[C@H](N)C(=O)O [met, methionine, reference compound]
MAT activity on substrate (Pi released per hour) [1]: equally active | MAT activity on substrate (Pi released per hour) [2]: equally active

C=C(C)[C@@H]1CCC(C)=C[C@H]1c1c(O)cc(CCCCC)cc1O [CBD, cannabidiol]
metabolites with cleavage of the 5′ pentyl tail [7]: ~25%
